Assay results reported in EP4800015A1, “AZABICYCLO DERIVATIVE AND PREPARATION METHOD THEREFOR, AND USE” (Zhejiang Hisun Pharmaceutical Co., Ltd., priority 2023, dated 2025).
Where two headings read alike, the source gives them in different places.

Molecular target: T1, recombinant human WRN (Homo sapiens, UniProt Q14191)
T1 construct: purchased BPS 101264
Test: Inhibition of WRN enzyme activity (ATPase), ADP-Glo Kinase Assay
Type: biochemical
Details: WRN protein 5 nM, Flap 0.1 nM, ATP 30 µM
Description: The following method was used to determine the degree of inhibition of recombinant human WRN ATPase activity by the compounds of the present disclosure in vitro. In this method, ADP-Glo™ Kinase Assay kit (catalog No. V9102) from Promega was used. Detailed experimental procedures can be found in the kit manual.
The experimental procedure was briefly described as follows: test compounds were first dissolved in DMSO to prepare stock solutions, followed by serial dilution using reaction buffer (30 mM Tris, pH 7.5, 2 mM MgCl2, 50 mM NaCl, 0.02% BSA, 0.1% Pluronic F127), with final concentrations of test compounds in the reaction system ranging from 1000 nM to 0.004 nM; WRN protein (purchased from BPS, catalog No. 101264), substrate 5-flap oligonucleotide (Flap26) (synthesized by Shanghai Generay Biotech Co., Ltd., sequence 5'-[…]-3'), and ATP working solution (from ADP-Glo™ Kinase Assay kit component V915A) were prepared using reaction buffer. Reactions were performed in 384-well microplates. At first the compounds and recombinant human WRN protein (final concentration 5 nM) were added to the wells and the plate was incubated at room temperature for 15 minutes, then Flap solution (final concentration 0.1 nM) and ATP solution (final concentration 30 µM) were added to the reaction solution and the plate was incubated at room temperature for 10 minutes. Subsequently, 5 µL of ADP-Glo Reagent was added to the reaction system and incubated at room temperature for 40 minutes. Then 10 µL of Kinase Detection Reagent was added to the reaction system and incubated at room temperature for 30 minutes. After the incubation was completed, chemiluminescence intensity values of each well were measured using a microplate reader in luminescence mode. The percentage inhibition of the compounds at each concentration was calculated by comparison with the luminescence intensity values of the control group (0.1% DMSO), and IC50 values of compounds were obtained by nonlinear regression analysis of compound concentration logarithm-inhibition rate using GraphPad Prism 9 software, as shown in Table 1.
The IC50 value results of the compounds of the present disclosure are expressed as AA and A, respectively as follows: "AA" indicates IC50 ≤ 1 nM; "A" indicates 1 nM < IC50 ≤ 100 nM. Table 1 IC50 of the compounds of the present disclosure for inhibiting WRN enzyme activity (ATPase)

T1 sequence (Q14191 whole entry): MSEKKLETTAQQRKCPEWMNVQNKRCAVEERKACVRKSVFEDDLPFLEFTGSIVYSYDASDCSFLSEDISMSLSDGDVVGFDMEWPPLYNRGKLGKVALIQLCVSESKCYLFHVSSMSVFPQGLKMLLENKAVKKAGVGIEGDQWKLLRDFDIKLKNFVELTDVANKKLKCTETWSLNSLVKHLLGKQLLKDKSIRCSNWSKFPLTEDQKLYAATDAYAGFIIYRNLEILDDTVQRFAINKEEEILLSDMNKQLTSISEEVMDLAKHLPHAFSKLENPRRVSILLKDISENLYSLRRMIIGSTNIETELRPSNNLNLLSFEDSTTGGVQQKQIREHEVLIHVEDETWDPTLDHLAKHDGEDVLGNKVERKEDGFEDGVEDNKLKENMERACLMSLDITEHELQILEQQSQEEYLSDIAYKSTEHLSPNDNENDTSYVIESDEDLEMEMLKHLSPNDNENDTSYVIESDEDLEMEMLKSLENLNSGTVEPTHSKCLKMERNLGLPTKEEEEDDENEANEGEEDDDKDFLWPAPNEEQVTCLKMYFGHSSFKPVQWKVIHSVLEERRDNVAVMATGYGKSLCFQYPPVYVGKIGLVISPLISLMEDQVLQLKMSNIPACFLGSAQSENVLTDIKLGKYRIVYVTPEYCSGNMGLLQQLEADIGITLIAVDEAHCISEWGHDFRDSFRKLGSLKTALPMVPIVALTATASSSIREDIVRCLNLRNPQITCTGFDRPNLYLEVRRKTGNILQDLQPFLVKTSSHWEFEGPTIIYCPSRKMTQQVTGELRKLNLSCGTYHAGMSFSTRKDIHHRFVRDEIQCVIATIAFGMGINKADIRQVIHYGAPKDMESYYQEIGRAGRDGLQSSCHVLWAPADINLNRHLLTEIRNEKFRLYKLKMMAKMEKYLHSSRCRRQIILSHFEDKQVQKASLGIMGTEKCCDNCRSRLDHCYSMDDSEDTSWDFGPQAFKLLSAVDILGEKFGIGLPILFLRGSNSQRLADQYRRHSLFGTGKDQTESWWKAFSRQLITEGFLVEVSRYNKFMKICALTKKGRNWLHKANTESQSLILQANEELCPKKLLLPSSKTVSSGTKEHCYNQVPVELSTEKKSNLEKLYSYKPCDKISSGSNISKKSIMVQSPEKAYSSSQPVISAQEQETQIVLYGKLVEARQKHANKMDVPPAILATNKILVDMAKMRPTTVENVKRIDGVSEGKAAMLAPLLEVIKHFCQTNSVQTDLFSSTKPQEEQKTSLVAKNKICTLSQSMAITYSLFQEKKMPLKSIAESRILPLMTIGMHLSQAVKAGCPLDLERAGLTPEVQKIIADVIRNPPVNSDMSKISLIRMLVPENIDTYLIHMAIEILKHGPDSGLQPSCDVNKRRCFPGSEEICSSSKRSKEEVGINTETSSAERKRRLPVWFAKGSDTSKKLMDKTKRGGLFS

CCc1c(N2CCN(C(=O)c3ncnc(C)c3O)CC2)c(=O)n2nc(-c3ccc4c(c3)CN(CC(F)(F)F)CCO4)nc2n1CC(=O)Nc1ccc(C(F)(F)F)cc1Cl [Example 180, N-(2-chloro-4-(trifluoromethyl)phenyl)-2-(5-ethyl-6-(4-(5-hydroxy-6-methylpyrimidine-4-carbonyl)piperazin-1-yl)-7-oxo-2-(4-(2,2,2-trifluoroethyl)-2,3,4,5-tetrahydrobenzo[f][1,4]oxazepin-7-yl) -[1,2,4]triazolo[1,5-a]pyrimidin-4(7H)-yl)acetamide]
IC50 (read-out: IC50): 1 to 100 nM

CCc1c(N2CCN(C(=O)c3ncnc(C)c3O)CC2)c(=O)n2nc(/C=C/c3ccccn3)nc2n1CC(=O)Nc1ccc(C(F)(F)F)cc1Cl [Example 37, (E)-N-(2-chloro-4-(trifluoromethyl)phenyl)-2-(5-ethyl-6-(4-(5-hydroxy-6-methylpyrimidine-4-carbonyl)piperazin-1-yl)-7-oxo-2-(2-(pyridin-2-yl)vinyl)-[1,2,4]triazolo[1,5-a]pyrimidin-4(7H)-yl)a cetamide]
IC50 (read-out: IC50): 1 to 100 nM

CCc1c(N2CCN(C(=O)c3ncnc(C)c3O)CC2)c(=O)n2nc(C=C3CCCC3)nc2n1CC(=O)Nc1ccc(C(F)(F)F)cc1Cl [Example 117, N-(2-chloro-4-(trifluoromethyl)phenyl)-2-(2-(cyclopentylidenemethyl)-5-ethyl-6-(4-(5-hydroxy-6-methylpyrimidine-4-carbonyl)piperazin-1-yl)-7-oxo-[1,2,4]triazolo[1,5-a]pyrimidin-4(7H)-yl)a cetamide]
IC50 (read-out: IC50): 1 to 100 nM

CCc1c(N2CCN(C(=O)c3ncnc(C)c3O)CC2)c(=O)n2nc(-c3ccc4cnn(C)c4c3)nc2n1CC(=O)Nc1ccc(C(F)(F)F)cc1Cl [Example 139, N-(2-chloro-4-(trifluoromethyl)phenyl)-2-(5-ethyl-6-(4-(5-hydroxy-6-methylpyrimidine-4-carbonyl)piperazin-1-yl)-2-(1-methyl-1H-indazol-6-yl)-7-oxo-[1,2,4]triazolo[1,5-a]pyrimidin-4(7H)-yl) acetamide]
IC50: 1 to 100 nM

CCc1c(N2CCN(C(=O)c3ncnc(C)c3O)CC2)c(=O)n2nc(C3=CC4(CCNCC4)C3)nc2n1CC(=O)Nc1ccc(C(F)(F)F)cc1Cl [Example 143, N-(2-chloro-4-(trifluoromethyl)phenyl)-2-(5-ethyl-6-(4-(5-hydroxy-6-methylpyrimidine-4-carbonyl)piperazin-1-yl)-7-oxo-2-(7-azaspiro[3.5]non-1-en-2-yl)-[1,2,4]triazolo[1,5-a]pyrimidin-4(7H)-yl)acetamide]
IC50 (read-out: IC50): 1 to 100 nM

CCc1c(N2CCN(C(=O)c3ncnc(C)c3O)CC2)c(=O)n2nc(C=C3CCOCC3)nc2n1CC(=O)Nc1ccc(C(F)(F)F)cc1Cl [Example 21, N-(2-chloro-4-(trifluoromethyl)phenyl)-2-(5-ethyl-6-(4-(5-hydroxy-6-methylpyrimidine-4-carbonyl)piperazin-1-yl)-7-oxo-2-((tetrahydro-4H-pyran-4-ylidene)methyl)-[1,2,4]triazolo[1,5-a]pyrimidin-4(7H)-yl)acetamide]
IC50 (read-out: IC50): 1 to 100 nM

CCc1c(N2CCC(NC(=O)c3ncnc(C)c3O)CC2)c(=O)n2nc(-c3ccc4c(c3)CCO4)nc2n1CC(=O)Nc1ccc(C(F)(F)F)cc1Cl [Example 108, N-(1-(4-(2-((2-chloro-4-(trifluoromethyl)phenyl)amino)-2-oxoethyl)-2-(2,3-dihydrobenzofuran-5-yl)-5-ethyl-7-oxo-4,7-dihydro-[1,2,4]triazolo[1,5-a]pyrimidin-6-yl)piperidin-4-yl)-5-hydroxy-6-methylpyrimidine-4-carboxamide]
IC50 (read-out: IC50): 1 to 100 nM

CCc1c(N2CCN(C(=O)c3ncnc(C)c3O)CC2)c(=O)n2nc(C3=CC4(C3)CC(C(N)=O)C4)nc2n1CC(=O)Nc1ccc(C(F)(F)F)cc1Cl (stereo not drawn) [Example 119, 6-(4-(2-((2-chloro-4-(trifluoromethyl)phenyl)amino)-2-oxoethyl)-5-ethyl-6-(4-(5-hydroxy-6-methylpyrimidine-4-carbonyl)piperazin-1-yl)-7-oxo-4,7-dihydro-[1,2,4]triazolo[1,5-a]pyrimidin-2-yl)spiro[3.3]hept-5-ene-2-carboxamide]
IC50 (read-out: IC50): 1 to 100 nM

CCc1c(N2CCN(C(=O)c3ncnc(C)c3O)CC2)c(=O)n2nc(-c3ccc4c(c3)OCC4)nc2n1CC(=O)Nc1ccc(C(F)(F)F)cc1Cl [Example 81, N-(2-chloro-4-(trifluoromethyl)phenyl)-2-(2-(2,3-dihydrobenzofuran-6-yl)-5-ethyl-6-(4-(5-hydroxy-6-methylpyrimidine-4-carbonyl)piperazin-1-yl)-7-oxo-[1,2,4]triazolo[1,5-a]pyrimidin-4(7H)-yl)acetamide]
IC50 (read-out: IC50): 1 to 100 nM

CCc1c(N2CCN(C(=O)c3ccncc3O)CC2)c(=O)n2nc(C3=CCCCCC3)nc2n1CC(=O)Nc1ccc(C(C)(C)C)cc1 [Example 24, N-(4-(tert-butyl)phenyl)-2-(2-(cyclohept-1-en-1-yl)-5-ethyl-6-(4-(3-hydroxyisonicotinoyl)piperazin-1-yl)-7-oxo-[1,2,4]triazolo[1,5-a]pyrimidin-4(7H)-yl)acetamide]
IC50 (read-out: IC50): 1 to 100 nM

CCc1c(N2CCN(C(=O)c3ccccc3O)CC2)c(=O)n2nc(C3=CCCCCC3)nc2n1CC(=O)Nc1ccc(C(F)(F)F)cc1Cl [Example 10, N-(2-chloro-4-(trifluoromethyl)phenyl)-2-(2-(cyclohept-1-en-1-yl)-5-ethyl-6-(4-(2-hydroxybenzoyl)piperazin-1-yl)-7-oxo-[1,2,4]triazolo[1,5-a]pyrimidin-4(7H)-yl)acetamide]
IC50 (read-out: IC50): 1 to 100 nM

CCc1c(N2CCN(C(=O)c3ncnc(C)c3O)CC2)c(=O)n2nc(C=C3CC(C(N)=O)C3)nc2n1CC(=O)Nc1ccc(C(F)(F)F)cc1Cl (stereo not drawn) [Example 116, 3-((4-(2-((2-chloro-4-(trifluoromethyl)phenyl)amino)-2-oxoethyl)-5-ethyl-6-(4-(5-hydroxy-6-methylpyrimidine-4-carbonyl)piperazin-1-yl)-7-oxo-4,7-dihydro-[1,2,4]triazolo[1,5-a]pyrimidin-2-yl)methylene)cyclobutane-1-carboxamide]
IC50 (read-out: IC50): 1 to 100 nM

CCc1c(N2CCN(C(=O)c3ncnc(C)c3O)CC2)c(=O)n2nc(-c3ccc4ccoc4c3)nc2n1CC(=O)Nc1ccc(SC(F)(F)F)cc1 [Example 90, 2-(2-(benzofuran-6-yl)-5-ethyl-6-(4-(5-hydroxy-6-methylpyrimidine-4-carbonyl)piperazin-1-yl)-7-oxo-[1,2,4]triazolo[1,5-a]pyrimidin-4(7H)-yl)-N-(4-((trifluoromethyl)thio)phenyl)acetamide]
IC50 (read-out: IC50): 1 to 100 nM

CCc1c(N2CCN(C(=O)c3ncccc3O)CC2)c(=O)n2nc(C3=CCCCCC3)nc2n1CC(=O)Nc1ccc(S(F)(F)(F)(F)F)cc1 [Example 46, 2-(2-(cyclohept-1-en-1-yl)-5-ethyl-6-(4-(3-hydroxypicolinoyl)piperazin-1-yl)-7-oxo-[1,2,4]triazolo[1,5-a]pyrimidin-4(7H)-yl)-N-(4-(pentafluoro-λ^6-sulfaneyl)phenyl)acetamide]
IC50 (read-out: IC50): 1 to 100 nM

CCc1c(N2CCN(C(=O)c3ncnc(C)c3O)CC2)c(=O)n2nc(C3=CC4(CCC4)C3)nc2n1CC(=O)Nc1ccc(C(F)(F)F)cc1Cl [Example 50, N-(2-chloro-4-(trifluoromethyl)phenyl)-2-(5-ethyl-6-(4-(5-hydroxy-6-methylpyrimidine-4-carbonyl)piperazin-1-yl)-7-oxo-2-(spiro[3.3]hept-1-en-2-yl)-[1,2,4]triazolo[1,5-a]pyrimidin-4(7H)-yl)ac etamide]
IC50 (read-out: IC50): 1 to 100 nM
